Test results: patent US9416144B2, “Benzoxazine oxazolidinone compound, preparation method and application thereof” (priority 2012, dated 2016)
Converted amounts (≈) assume the structure as drawn.

What was measured:
[1] = test system: LREFA, linezolid-resistant strain of Enterococcus faecium (3 strains); experiment: In vitro antibacterial activity on linezolid-resistant strains, MIC in MHB broth, 96-well plate; format: cell-based; conditions: LREFA (3 strains)
Procedure: (§1) The stock solution of the subject drugs in DMSO was 10 mg/mL. MHA (agar) and MHB (broth) were both prepared according to the manufacturer's requirements.
(§2) Double dilution of drugs: under aseptic operation, 12.8 μL of liquid drug was added into the first well of a 96-well plate, and then added 27.2 μL DMSO and mixed. The 2nd to 12nd wells were all added 20 μL DMSO. 20 μL was taken from the first well to the second well and mixed up. 20 μL was taken from the second well to the third well, which was repeated till the 11st well, from which was taken 20 μL and discarded. The 12nd well only had 20 μL of DMSO as the growth control. Then 180 μL of sterile water was added to each well and mixed up. The drug used as control was prepared by the same method.
(§3) The solutions with different concentrations of antibacterial drugs after the double dilution and DMSO were added into a sterile 96-well plate separately, 10 μL per well, ready for use.
(§4) Single colonies were picked from the MHA plates into 5 ml of sterile saline and mixed up.
(§5) Light transmittance was adjusted to 80% with a spectrophotometer. After being diluted by 1:200 with MHB, 90 μL of such bacteria liquid was added into each of the wells which already had 10 μL of the drug liquid, mixed up, and incubated in a regular biochemical incubator at 35° C. for 20 hrs before the results were read out. At this time, the drug concentration in the 1st to 12nd wells was 32, 16, 8, 4, 2, 1, 0.5, 0.25, 0.125, 0.0625, 0.03125, 0 μg/mL, respectively.
(§6) Two parallel groups were set up for the same diluted concentration of a drug.
(§7) 4) Results Reading and Judgment: Refer to the Standard Recommended by the CLSI, 2010 Edition.
(§8) The positive control group was LZ (linezolid, brand name Zyvox, approved by the FDA in 2000 to be firstly sold in the United States, which is the first and also the only one of oxazolidinone antibacterial drugs allowed to enter clinical application).

[2] = test system: LREFL, linezolid-resistant strain of Enterococcus faecalis (3 strains); experiment: as above; format: cell-based; conditions: LREFL (3 strains)
Procedure: as §1, §2, §3, §4, §5, §6, §7, §8

[3] = test system: LRSE, linezolid-resistant strain of Staphylococcus epidermidis (1 strain); experiment: as above; format: cell-based; conditions: LRSE (1 strain)
Procedure: as §1, §2, §3, §4, §5, §6, §7, §8

[4] = test system: S.a. ATCC 29213 (standard strain of Staphylococcus aureus); experiment: as above; format: cell-based; conditions: ATCC29213, 35° C. 20 hrs
Procedure: as §1, §2, §3, §4, §5, §6, §7, §8

[5] = test system: LRSA, linezolid-resistant strain of Staphylococcus aureus (3 strains); experiment: as above; format: cell-based; conditions: LRSA (3 strains)
Procedure: as §1, §2, §3, §4, §5, §6, §7, §8

[6] = test system: Staphylococcus epidermidis resistant strains (5 strains); experiment: In vitro antibacterial activity, MIC by agar double dilution method; format: cell-based; conditions: clinical isolates
Source text: (§9) Experimental method: The agar double dilution method (Antimicrob. Agents and Chemother, 40, 1996, 720-726) was used to determine the minimum inhibitory concentration (MIC) of the series of compounds of the invention and the positive control drug linezolid for the test strains. The multipoint inoculation system (Denley A400) was employed to inoculate the bacteria on the agar plate surface with different concentrations of drugs; inoculation amount on each point was about 10^6 CFU/mL. The plates were incubated at 35° C. for 16 hrs before the results were observed. The lowest drug concentration contained in the Petri dish without bacterial growth was used as the minimum inhibitory concentration (MIC value) of the drug fir that strain.
(§10) Test strains: All the test strains were clinically isolated pathogens which were collected from the Nanjing region, and they were re-identified by routine methods before use. 31 strains of the clinically isolated pathogens were chosen, including 6 strains of Enterococcus, 5 Staphylococcus aureus sensitive strains; 5 Staphylococcus epidermidis sensitive strains; 6 Staphylococcus aureus resistant strains; 5 Staphylococcus epidermidis resistant strains; and 4 Streptococcus pneumoniae resistant strains.
(§11) Compounds to be tested were first added 2 ml of DMSO to help them fully dissolved, then added sterile double distilled water to the desired concentration; to all the Petri dish with added drug liquid were added 20 mL MIT medium which was heat-melted to be liquid-like, to make the final drug concentration in the Petri dish to be 64, 32, 16, 8, 4, 2, 1, 0.5, 0.25, 0.125, 0.0625, and 0.031 μg/mL.
as §8

[7] = test system: Streptococcus pneumoniae resistant strains (4 strains); experiment: as above; format: cell-based; conditions: clinical isolates
Source text: as §9, §10, §11, §8

[8] = test system: Staphylococcus aureus resistant strains (6 strains); experiment: as above; format: cell-based; conditions: clinical isolates
Source text: as §9, §10, §11, §8

[9] = test system: Staphylococcus aureus sensitive strains (5 strains); experiment: as above; format: cell-based; conditions: clinical isolates
Source text: as §9, §10, §11, §8

[10] = test system: Enterococcus (6 strains); experiment: as above; format: cell-based; conditions: clinical isolates, 35° C. 16 hrs
Source text: as §9, §10, §11, §8

[11] = test system: Staphylococcus epidermidis sensitive strains (5 strains); experiment: as above; format: cell-based; conditions: clinical isolates
Source text: as §9, §10, §11, §8

| SMILES | MIC [1] | MIC [2] | MIC [3] | MIC [4] | MIC [5] | MIC [6] | MIC [7] | MIC [8] | MIC [9] | MIC [10] | MIC [11] | melting point |
| --- | --- | --- | --- | --- | --- | --- | --- | --- | --- | --- | --- | --- |
| C[C@@H](O)C(=O)c1ccc(-c2ccc3c(c2)OC[C@H]2[C@H](CO)OC(=O)N32)cn1 [Compound 1, (3R,3aS)-3-(hydroxylmethyl)-7-(6-((R)-2-hydroxylpropionyl)pyridin-3-yl)-3a,4-dihydrobenzo[b]oxazolo[3,4-d][1,4]oxazin-1(3H)-one] | 4 to 8 µg/mL (≈ 10.8 to 21.6 µM) | 8 µg/mL (≈ 21.6 µM) | 4 µg/mL (≈ 10.8 µM) | 0.5 µg/mL (≈ 1.35 µM) | 8 µg/mL (≈ 21.6 µM) | 0.125 to 0.5 µg/mL (≈ 0.338 to 1.35 µM) | 0.25 to 0.5 µg/mL (≈ 0.675 to 1.35 µM) | 0.125 to 0.5 µg/mL (≈ 0.338 to 1.35 µM) | 0.25 µg/mL (≈ 0.675 µM) | 1 µg/mL (≈ 2.7 µM) | 0.125 to 0.5 µg/mL (≈ 0.338 to 1.35 µM) | 164 to 166 °C |
| O=C1O[C@@H](CO)[C@@H]2COc3cc(-c4ccc(Cn5cncn5)nc4)ccc3N12 [Compound 2, (3R,3aS)-7-(6-((1H-1,2,4-triazol-1-yl)methyl)pyridin-3-yl)-3-(hydroxylmethyl)-3a,4-dihydrobenzo[b]oxazolo[3,4-d][1,4]oxazin-1(3H)-one] | 4 to 8 µg/mL (≈ 10.5 to 21.1 µM) | 4 to 8 µg/mL (≈ 10.5 to 21.1 µM) | 4 µg/mL (≈ 10.5 µM) | 0.5 µg/mL (≈ 1.32 µM) | 8 µg/mL (≈ 21.1 µM) | 0.5 to 1 µg/mL (≈ 1.32 to 2.64 µM) | 0.5 to 2 µg/mL (≈ 1.32 to 5.27 µM) | 0.5 to 1 µg/mL (≈ 1.32 to 2.64 µM) | 0.5 to 1 µg/mL (≈ 1.32 to 2.64 µM) | 1 to 2 µg/mL (≈ 2.64 to 5.27 µM) | 0.5 to 1 µg/mL (≈ 1.32 to 2.64 µM) | – |
| N#Cc1ccc(-c2ccc3c(c2)OC[C@H]2[C@H](CO)OC(=O)N32)cn1 [Compound 3, 5-((3R,3aS)-3-(hydroxylmethyl)-1-oxo-1,3,3a,4-tetrahydrobenzo[b]oxazolo[3,4-d][1,4]oxazin-7-yl)picolinonitrile] | 2 to 4 µg/mL (≈ 6.19 to 12.4 µM) | 4 µg/mL (≈ 12.4 µM) | 4 µg/mL (≈ 12.4 µM) | 0.25 µg/mL (≈ 0.773 µM) | 4 to 8 µg/mL (≈ 12.4 to 24.7 µM) | 0.125 to 0.25 µg/mL (≈ 0.387 to 0.773 µM) | 0.25 to 0.5 µg/mL (≈ 0.773 to 1.55 µM) | 0.125 to 0.25 µg/mL (≈ 0.387 to 0.773 µM) | 0.25 to 0.5 µg/mL (≈ 0.773 to 1.55 µM) | 1 µg/mL (≈ 3.09 µM) | 0.25 µg/mL (≈ 0.773 µM) | – |
| O=C1OCCN1c1ccc(-c2ccc3c(c2)OC[C@H]2[C@H](CO)OC(=O)N32)cn1 [Compound 5, (3R,3aS)-3-(hydroxylmethyl)-7-(6-(2-oxazolidino-3-yl)pyridin-3-yl)-3a,4-dihydrobenzo[b]oxazolo[3,4-d][1,4]oxazin-1(3H)-one] | 4 to 8 µg/mL (≈ 10.4 to 20.9 µM) | 4 to 8 µg/mL (≈ 10.4 to 20.9 µM) | 2 µg/mL (≈ 5.22 µM) | 0.5 µg/mL (≈ 1.3 µM) | 4 µg/mL (≈ 10.4 µM) | 0.5 to 1 µg/mL (≈ 1.3 to 2.61 µM) | 0.5 to 1 µg/mL (≈ 1.3 to 2.61 µM) | 0.5 to 1 µg/mL (≈ 1.3 to 2.61 µM) | 0.5 to 1 µg/mL (≈ 1.3 to 2.61 µM) | 1 µg/mL (≈ 2.61 µM) | 0.5 to 1 µg/mL (≈ 1.3 to 2.61 µM) | – |
| C[C@@H](O)C(O)c1ccc(-c2ccc3c(c2)OC[C@H]2[C@H](CO)OC(=O)N32)cn1 (stereo partly drawn) [Compound 18, (3R,3aS)-7-(6-((2R)-1,2-dihydroxylpropyl)pyridin-3-yl)-3-(hydroxylmethyl)-3a,4-dihydrobenzo[b]oxazolo[3,4-d][1,4]oxazin-1(3H)-one] | 2 to 4 µg/mL (≈ 5.37 to 10.7 µM) | 2 to 4 µg/mL (≈ 5.37 to 10.7 µM) | 4 µg/mL (≈ 10.7 µM) | 0.5 µg/mL (≈ 1.34 µM) | 4 µg/mL (≈ 10.7 µM) | 1 to 2 µg/mL (≈ 2.69 to 5.37 µM) | 2 to 4 µg/mL (≈ 5.37 to 10.7 µM) | 2 µg/mL (≈ 5.37 µM) | 2 to 4 µg/mL (≈ 5.37 to 10.7 µM) | 4 to 8 µg/mL (≈ 10.7 to 21.5 µM) | 1 to 2 µg/mL (≈ 2.69 to 5.37 µM) | – |
| Cc1cc(N2CCOC2=O)ncc1-c1ccc2c(c1)OC[C@H]1[C@H](CO)OC(=O)N21 [Compound 22, (3R,3aS)-3-(hydroxylmethyl)-7-(4-methyl-6-(2-oxooxazolidin-3-yl)pyridin-3-yl)-3a,4-dihydrobenzo[b]oxazolo[3,4-d][1,4]oxazin-1(3H)-one] | – | – | – | – | – | 1 µg/mL (≈ 2.52 µM) | 2 µg/mL (≈ 5.03 µM) | 0.5 to 1 µg/mL (≈ 1.26 to 2.52 µM) | 0.5 to 1 µg/mL (≈ 1.26 to 2.52 µM) | 4 to 16 µg/mL (≈ 10.1 to 40.3 µM) | 0.5 to 1 µg/mL (≈ 1.26 to 2.52 µM) | 245 to 246 °C |
| CN1CCC[C@H]2CN(c3ccc(-c4ccc5c(c4)OC[C@H]4[C@H](CO)OC(=O)N54)cn3)C[C@H]21 [Compound 23, (3R,3aS)-3-(hydroxylmethyl)-7-(6-((4aS,7aS)-1-methylhexaydro-1H-pyrrolo[3,4-b]pyridin-6(2H)-yl)pyridin-3-yl)-3a,4-dihydrobenzo[b]oxazolo[3,4-d][1,4]oxazin-1(3H)-one] | – | – | – | – | – | 8 to 16 µg/mL (≈ 18.3 to 36.7 µM) | 16 µg/mL (≈ 36.7 µM) | 8 µg/mL (≈ 18.3 µM) | 8 µg/mL (≈ 18.3 µM) | 16 µg/mL (≈ 36.7 µM) | 4 to 8 µg/mL (≈ 9.16 to 18.3 µM) | 169 to 171 °C |
| O=C1O[C@@H](CO)[C@@H]2COc3cc(-c4ccc(N5C[C@@H]6CCCN[C@@H]6C5)nc4)ccc3N12 [Compound 32, (3R,3aS)-7-(6-((4aS,7aS)-hexahydro-1H-pyrrolo[3,4-b]pyridin-6(2H)-yl)pyridin-3-yl)-3-(hydroxylmethyl)-3a,4-dihydrobenzo[b]oxazolo[3,4-d][1,4]oxazin-1(3H)-one] | – | – | – | – | – | 4 to 8 µg/mL (≈ 9.47 to 18.9 µM) | 8 to 16 µg/mL (≈ 18.9 to 37.9 µM) | 8 µg/mL (≈ 18.9 µM) | 4 to 8 µg/mL (≈ 9.47 to 18.9 µM) | 16 µg/mL (≈ 37.9 µM) | 4 to 8 µg/mL (≈ 9.47 to 18.9 µM) | 210 to 212 °C |
| N#Cc1ccc(-c2ccc3c(c2)OC[C@H]2[C@H](COC(=O)CCC(=O)O)OC(=O)N32)cn1 [Compound 34, 4-(((3R,3aS)-7-(6-cyanopyridin-3-yl)-1-oxo-1,3,3a,4-tetrahydrobenzo[b]oxazolo[3,4-d][1,4]oxazin-3-yl)methoxyl)-4-oxobutyric acid] | 4 µg/mL (≈ 9.45 µM) | 4 µg/mL (≈ 9.45 µM) | 4 µg/mL (≈ 9.45 µM) | 0.5 µg/mL (≈ 1.18 µM) | 8 µg/mL (≈ 18.9 µM) | – | – | – | – | – | – | 313 to 315 °C |
